Results from patent publication US20150031668A1, “CHROMAN DERIVATIVES AS TRPM8 INHIBITORS” (AMGEN INC., priority 2013, published 2015).
Where a name gives a salt, the structure may show the parent alone.

Target: T1, human TRPM8 (Homo sapiens, UniProt Q7Z2W7)
T1 construct: expressed in transfected cells; host or cells: Chinese hamster ovary (CHO) cells, T-REx tetracycline-inducible expression system (Invitrogen); co-transfected with pcDNA3.1 aequorin
Assay: Luminescence readout assay for measuring intracellular calcium (aequorin, CHO cells expressing human TRPM8; icilin, L-menthol or cold activation)
Type: cell-based
Conditions: CHO cells expressing human TRPM8, icilin activation (1 μM), aequorin luminescence; read-out: hTRPM8 IC50
Method: Luminescence Readout Assay for Measuring Intracellular Calcium
A stable Chinese hamster ovary cell line expressing human TRPM8 was generated using tetracycline inducible T-REx™ expression system from Invitrogen, Inc. (Carlsbad, Calif.). […] Twenty four hours before the assay, cells were seeded in 96-well plates and TRPM8 expression was induced with 0.5 μg/ml tetracycline. On the day of the assay, culture media was removed and cells were incubated with assay buffer
Potential antagonists were added 2.5 min prior to the addition of agonist, 1 μM icilin, 100 μM L-menthol, or 1 min prior to the addition of cold buffer (<10° C.). The luminescence was measured by a CCD camera based FLASH-luminometer built by Amgen, Inc. A cooling device attached to FLASH luminometer was used for cold activation.

T1 sequence (Q7Z2W7 whole entry): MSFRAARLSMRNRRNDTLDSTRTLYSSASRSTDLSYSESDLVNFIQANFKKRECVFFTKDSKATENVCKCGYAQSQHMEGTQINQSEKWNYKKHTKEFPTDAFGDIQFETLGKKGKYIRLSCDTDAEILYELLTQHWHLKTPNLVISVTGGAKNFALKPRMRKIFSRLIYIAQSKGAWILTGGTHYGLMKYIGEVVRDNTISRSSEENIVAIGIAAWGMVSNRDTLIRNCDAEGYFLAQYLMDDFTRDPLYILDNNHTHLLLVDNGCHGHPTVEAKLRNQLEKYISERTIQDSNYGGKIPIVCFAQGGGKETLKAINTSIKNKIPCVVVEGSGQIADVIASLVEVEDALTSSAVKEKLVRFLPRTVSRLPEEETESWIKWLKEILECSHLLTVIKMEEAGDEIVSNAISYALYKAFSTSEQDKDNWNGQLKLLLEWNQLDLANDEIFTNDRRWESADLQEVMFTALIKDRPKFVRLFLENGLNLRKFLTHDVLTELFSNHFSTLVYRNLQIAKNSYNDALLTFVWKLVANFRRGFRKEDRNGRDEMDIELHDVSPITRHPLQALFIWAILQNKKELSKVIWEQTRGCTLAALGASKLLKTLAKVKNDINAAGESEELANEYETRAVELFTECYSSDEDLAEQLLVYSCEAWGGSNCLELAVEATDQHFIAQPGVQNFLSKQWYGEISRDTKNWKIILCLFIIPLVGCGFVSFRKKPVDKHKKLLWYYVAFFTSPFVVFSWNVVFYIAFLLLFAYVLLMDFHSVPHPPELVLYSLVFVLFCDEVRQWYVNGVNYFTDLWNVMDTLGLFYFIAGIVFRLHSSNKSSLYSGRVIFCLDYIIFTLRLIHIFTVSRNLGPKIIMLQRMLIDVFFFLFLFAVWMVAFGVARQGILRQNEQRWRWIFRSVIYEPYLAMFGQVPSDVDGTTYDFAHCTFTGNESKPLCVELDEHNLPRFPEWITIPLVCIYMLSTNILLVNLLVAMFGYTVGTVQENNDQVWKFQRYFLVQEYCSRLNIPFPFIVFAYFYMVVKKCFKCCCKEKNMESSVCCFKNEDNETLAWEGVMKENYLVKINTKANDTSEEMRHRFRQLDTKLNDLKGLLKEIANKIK

Row | Structure (SMILES) | IC50
1 | O=C(O)C1CCN(C(=O)N[C@]2(c3ccc(OC(F)(F)F)c(F)c3)CCOc3cccnc32)CC1 [Example 110] | 585 nM
2 | O=C(N[C@]1(c2ccc(OC(F)(F)F)cc2)CCOc2cccnc21)C1Cc2ccccc2O1 (stereo partly drawn) [Example 246, N-((S)-4-(4-(trifluoromethoxy)phenyl)-3,4-dihydro-2H-pyrano[3,2-b]pyridin-4-yl)-2,3-dihydrobenzo furan-2-carboxamide formate] | 94.4 nM
3 | O=S(=O)(N[C@]1(c2ccc(OC(F)(F)F)c(F)c2)CCOc2cccnc21)c1ccccc1 [Example 76, (S)—N-(4-(3-fluoro-4-(trifluoromethoxy)phenyl)-3,4-dihydro-2H-pyrano[3,2-b]pyridin-4-yl)benzenesulfonamide 2,2,2-trifluoroacetate] | 206 nM
4 | COC(=O)c1cccc(S(=O)(=O)N[C@]2(c3ccc(OC(F)(F)F)c(F)c3)CCOc3cccnc32)c1 [Example 285, (S)-methyl 3-(N-(4-(3-fluoro-4-(trifluoromethoxy)phenyl)-3,4-dihydro-2H-pyrano[3,2-b]pyridin-4-yl)sulfamoyl)benzoate] | 179 nM
5 | O=C(N[C@]1(c2ccc(-c3cccc(CO)c3)cc2)CCOc2cccnc21)c1ccc(F)cc1 [Example 118, (S)-4-fluoro-N-(4-(3′-(hydroxymethyl)-[1,1′-biphenyl]-4-yl)-3,4-dihydro-2H-pyrano[3,2-b]pyridin-4-yl)benzamide] | 2170 nM
6 | N#Cc1ccc(-c2ccc([C@@]3(NC(=O)c4ccccc4)CCOc4cccnc43)cc2)cc1 [Example 154, (S)—N-(4-(4′-cyano-[1,1′-biphenyl]-4-yl)-3,4-dihydro-2H-pyrano[3,2-b]pyridin-4-yl)benzamide] | 91 nM
7 | O=C(Nc1cnccc1Br)N[C@]1(c2ccc(OC(F)(F)F)c(F)c2)CCOc2cccnc21 [Example 94, (S)-1-(4-bromopyridin-3-yl)-3-(4-(3-fluoro-4-(trifluoromethoxy)phenyl)-3,4-dihydro-2H-pyrano[3,2-b]pyridin-4-yl)urea] | 230 nM
8 | O=C(N[C@]1(c2ccc(-c3ccccn3)cc2)CCOc2cccnc21)c1ccc(F)cc1 [Example 112, (S)-4-fluoro-N-(4-(4-(pyridin-2-yl)phenyl)-3,4-dihydro-2H-pyrano[3,2-b]pyridin-4-yl)benzamide] | 233 nM

These reach a lower IC50. Values come first.

Row | IC50 | Structure (SMILES)
9 | 51 nM | COc1ccc(C(=O)N[C@]2(c3ccc(C(F)(F)F)cc3)CCOc3cccnc32)cn1 [Example 32, (S)-6-methoxy-N-(4-(4-(trifluoromethyl)phenyl)-3,4-dihydro-2H-pyrano[3,2-b]pyridin-4-yl)nicotinamide]
10 | 14 nM | Cn1cc2ccc(C(=O)N[C@]3(c4ccc(OC(F)(F)F)cc4)CCOc4cccnc43)cc2n1 [Example 265, (S)-2-methyl-N-(4-(4-(trifluoromethoxy)phenyl)-3,4-dihydro-2H-pyrano[3,2-b]pyridin-4-yl)-2H-indazole-6-carboxamide formate]
11 | 32 nM | CCOC(=O)c1ccc(C(=O)N[C@]2(c3ccc(OC(F)(F)F)c(F)c3)CCOc3cccnc32)nc1C [Example 169, (S)-ethyl 6-((4-(3-fluoro-4-(trifluoromethoxy)phenyl)-3,4-dihydro-2H-pyrano[3,2-b]pyridin-4-yl)carbamoyl)-2-methylnicotinate]
12 | 22 nM | O=C(Nc1cccnc1Br)N[C@]1(c2ccc(OC(F)(F)F)c(F)c2)CCOc2cccnc21 [Example 93, (S)-1-(2-bromopyridin-3-yl)-3-(4-(3-fluoro-4-(trifluoromethoxy)phenyl)-3,4-dihydro-2H-pyrano[3,2-b]pyridin-4-yl)urea]
13 | 15 nM | COC(=O)c1ccc(C(=O)N[C@]2(c3ccc(OC(F)(F)F)c(F)c3)CCOc3cccnc32)cc1N [Example 188, (S)-methyl 2-amino-4-((4-(3-fluoro-4-(trifluoromethoxy)phenyl)-3,4-dihydro-2H-pyrano[3,2-b]pyridin-4-yl)carbamoyl) benzoate]
